Data: patent publication US20030176494A1, “Novel coumarin and chromene compounds and methods of preparation and use thereof for treating or preventing viral infections” (priority 2001, published 2003)
Values after ≈ are worked out from the molar mass of the structure shown. Like-named read-outs stand apart in the source and are kept apart here.

Legend:
[1] = test system: HIV; assay: Anti-HIV evaluation by MTT-tetrazolium method (inhibition of CPE in MT-2 / CEM-SS cells); format: cell-based; details: Human immunodeficiency virus 1, CEM-SS; read-out: Antiviral Activities (EC50) HIV
Procedure: This example illustrates the anti-HIV activity of various coumarin and chromene compounds which were evaluated using the published MTT-tetrazolium methods^8. Retroviral agents AZT and DDC were used as controls for comparison purposes.
The cells used for screening were the MT-2 and the human T4-lymphoblastoid cell line, CEM-SS, and were grown in RPMI 1640 medium supplemented with 10% fetal (v/v) heat-inactivated fetal calf serum and also containing 100 units/mL penicillin, 100 μg/mL streptomycin, 25 mM HEPES and 20 μg/mL gentamicin. The medium used for dilution of drugs and maintenance of cultures during the assay was the same as above. The HTLV-IIIB and HTLV-RF were propagated in CEM-SS. The appropriate amounts of the pure compounds for anti-HIV evaluations were dissolved in DMSO, then diluted in medium to the desired initial concentration. The concentrations (M medium) employed were […]; 0.001 μM; 0.0032 μM; 0.01 μM; 0.032 μM; 0.1 μM; 0.32 μM; 1 μM; 3.2 μM; 10 μM; 32 μM; and 100 μM. Each dilution was added to plates in the amount of 100 μL/well. Drugs were tested in triplicate wells per dilution with infected cells while in duplicate wells per dilution with uninfected cells for evaluation of cytotoxicity. On day 6 (CEM-SS cells) and day 7 (MT-2 cells) post-infection, the viable cells were measured with a tetrazolium salt, MTT (5 mg/mL), added to the test plates. A solution of 20% SDS in 0.001 N HCl is used to dissolve the MTT formazan produced. The optical density value was a function of the amount of formazan produced which was proportional to the number of viable cells. The percent inhibition of CPE per drug concentration was measured as a test over control and expressed in percent (T/C %).

[2] = test system: EBV; assay: EBV assay: superinfection of Raji or Daudi cells with P3HR-1, immunofluorescence for EA and VCA; format: cell-based, Epstein-Barr Virus (P3HR-1); details: human gammaherpesvirus 4; read-out: Antiviral Activities (EC50) EBV
Description: There are two prototypes of infectious EBV. One is exemplified by the virus derived from supernatant fluids of the P3HR-1cell line. This cell line produces nontransforming virus that causes the production of early antigen (EA) after primary infection or superinfection of B cell lines. The other prototype is exemplified by the B-95-8 virus. This virus immortalized cord blood lymphocytes and induced tumors in marmosets. […] The virus used in our assays is P3HR-1.
Ramos is an exceptional B cell line derived from Burkitt's lymphoma tumor but containing no detectable EBV genome copies and is EBNA negative. Ramos/AW was obtained by in vitro infection of Ramos with the P3HR-1 virus and contains one resident EBV genome copy/cell. Raji is a Burkitt's lymphoma cell line containing 60 EBV genomes/cell, and will be the primary cell used for screening antiviral activity against EBV EA expression. Daudi is a low level producer that contains 152 EBV genome copies/cell. It spontaneously expresses EBV EA in 0.25%-0.5% of the cells. It will be used in follow-up studies to confirm activity. These cell lines respond to superinfection by EBV by expressing EA(D), EA(R), and VCA. All cell lines are maintained in RPMI-1640 medium supplemented by 10% FCS, L-glutamine and 100 μg/mL gentamicin. The cultures are fed twice weekly and the cell concentration adjusted to 3×10^5/mL. The cells are kept at 37° C. in a humidified atmosphere with 5% CO2.
Cells are infected with the P3HR-1 strain of EBV and the drugs to be tested are added after adsorption (45 minutes at 37° C.) and washing of the cell cultures. The cultures are incubated for two days in complete medium to allow viral gene expression. Following the 48 hr incubation period, the number of cells of each sample are counted and smears made. Monoclonal antibodies to the different EA components and VCA are then added to the cells incubated and washed. This is followed by a fluorescein conjugated rabbit anti-mouse Ig antibody; and the number of fluorescence positive cells in the smears are counted. The total number of cells in the cultures positive for EA or VCA are then calculated and compared.

[3] = test system: HBV; assay: HBV replication in cultures of 2.2.15 cells (HBV DNA blot hybridization); format: cell-based
Procedure: Test compounds are then added daily for a continuous 9 day period. Culture medium (changed daily during the treatment period) is collected and stored for analysis of extracellular (virion) HBV DNA after 0, 3, 6, and 9 days of treatment. Treated cells are lysed 24 hours following day 9 of treatment for the analysis of intracellular HBV genomic forms. HBV DVA is then analyzed in a quantitative and qualitative manner for overall levels of HBV DNA (both extracellular and intracellular DNA) and the relative rate of HBV replication (intracellular DNA).
Both intracellular and extracellular HBV DNA are analyzed in order to (i) allow for verification of compound efficacy and (ii) provide possible data on the target site in the HBV replication pathway for the compound from examination of the pattern of viral replicative forms. The culture medium is changed daily during the treatment period to (i) prevent the buildup of potentially toxic metabolites derived from test compounds and (ii) provide an analysis of HBV virion production during discrete 24-hour intervals which enables a quantitative comparison of any effect on virion production.
The analysis of HBV DNA is performed using blot hybridization techniques (Southern and slot blot) and [^32P]-labeled HBV-specific probes. HBV DNA levels are measured by comparison to known amounts of HBV DNA standards applied to every nitrocellulose membrane (gel or slot blot). An AMBIS beta scanner, which measures the radioactive decay of the hybridized probes directly from the nitrocellulose membranes, is used for the quantitative analysis. Standard curves, generated by multiple analyses, are used to correlate CPM measurements made by the beta scanner with relative levels of target HBV DNA. The levels of HBV virion DNA released into the culture medium are analyzed by a slot blot hybridization procedure. HBV DNA levels are then compared to those at Day 0 to determine the effect of drug treatment.
The levels of RI and episomal monomers are used as an indicator of the relative level of HBV replication. Integrated HBV DNA is used to normalize the relative amounts of DNA in each lane because the levels of this class of HBV DNA would be expected to remain constant on a per cell basis. […] Inhibition of HBV DNA replication is indicated by the loss of RI without changes in the level of integrated HBV DNA.

[4] = test system: Measles Virus; assay: Measles virus antiviral assay (CPE inhibition, neutral red uptake, virus yield); format: cell-based, Measles virus strain CC; details: Measles morbillivirus
[5] = test system: Respiratory Syncytial Virus; assay: Respiratory syncytial virus antiviral assay (CPE inhibition, neutral red uptake); format: cell-based, Respiratory syncytial virus strain Utah 89; details: human respiratory syncytial virus
[6] = test system: Rhinovirus; assay: Rhinovirus antiviral assay (CPE inhibition, neutral red uptake, virus yield); format: cell-based; details: Enterovirus
[7] = test system: VZV; assay: VZV plaque reduction assay in human foreskin fibroblast cells; format: cell-based, Varicella Zoster Virus (Ellen strain); details: Human alphaherpesvirus 3, Fibroblast; read-out: Antiviral Activities (EC50) VZV
Procedure: [table] Two days prior to use, HFF cells are plated into six-well plates and incubated at 37° C. with 5% CO2 and 90% humidity. On the date of assay, the drug is made up at twice the desired concentration in 2×MEM and then serially diluted 1:5 in 2×MEM using six concentrations of drug. […] The media is then aspirated from the wells and 0.2 mL of virus is added to each well in duplicate with 0.2 mL of media being added to drug toxicity wells. The plates are then incubated for one hour with shaking every fifteen minutes. […] The drug agarose mixture is applied to each well in 2 mL volume and the plates then incubated for three days, after which the cells were stained with a 1.5% solution of neutral red. At the end of 4-6 hr incubation period, the stain is aspirated, and plaques counted using a stereomicroscope at 10× magnification. The procedure is essentially the same as for the HSV plaque assay described above with two exceptions: 1. After addition of the drug, the plates are incubated for ten days. 2.

[8] = Hepatitis B virus; read-out: Antiviral Activities (EC50) HBV
[9] = CPE inhibition, read-out: Antiviral Activities (EC50) Measles (CPE)
[10] = neutral red (NR) dye uptake, read-out: Antiviral Activities (EC50) Measles (NR)
[11] = readout not stated, read-out: Antiviral Activities (EC50) Respiratory Syncitial
[12] = readout not stated, read-out: Antiviral Activities (EC50) Rhinovirus
[13] = CPE inhibition, read-out: Antiviral Activities (EC50) Respiratory Syncitial (CPE)
[14] = neutral red (NR) dye uptake, read-out: Antiviral Activities (EC50) Respiratory Syncitial (NR)
[15] = CPE inhibition, read-out: Antiviral Activities (EC50) Rhinovirus (CPE)
[16] = neutral red (NR) dye uptake, read-out: Antiviral Activities (EC50) Rhinovirus (NR)

SMILES	EC50 [1]	EC50 [2]	EC50 [3, 8]	EC50 [4, 9]	EC50 [4, 10]	EC50 [5, 11]	EC50 [6, 12]	EC50 [7]	EC50 [5, 13]	EC50 [5, 14]	EC50 [6, 15]	EC50 [6, 16]	EC50 ([3]; Hepatitis B virus, read-out: Antiviral Activities (EC50) HBV)	EC50 ([4]; read-out: Antiviral Activities (EC50) Measles (virus yield))
CCCc1cc(=O)oc2cc(OC(=O)CC)cc(O)c12	> 5 µg/mL	> 50 µg/mL	> 3 µg/mL	2 µg/mL (≈ 7.24 µM)	1 µg/mL (≈ 3.62 µM)	3 µg/mL (≈ 10.9 µM)	> 100 µg/mL	> 20 µg/mL	–	–	–	–	–	–
CCCc1cc(=O)oc2cc(OS(=O)(=O)c3ccc(C)cc3)cc(O)c12	> 2 µg/mL	2.1 µg/mL (≈ 5.61 µM)	2.1 µg/mL (≈ 5.61 µM)	1 µg/mL (≈ 2.67 µM)	1 µg/mL (≈ 2.67 µM)	–	–	> 100 µg/mL	3 µg/mL (≈ 8.01 µM)	2 µg/mL (≈ 5.34 µM)	1 µg/mL (≈ 2.67 µM)	2 µg/mL (≈ 5.34 µM)	–	–
CCCc1cc(=O)oc2cc(OC(=O)C(C)(C)C)cc(OC(=O)C(C)(C)C)c12	2.2 µg/mL (≈ 5.66 µM)	3.7 µg/mL (≈ 9.52 µM)	> 4 µg/mL	2 µg/mL (≈ 5.15 µM)	3 µg/mL (≈ 7.72 µM)	> 100 µg/mL	20 µg/mL (≈ 51.5 µM)	5.6 µg/mL (≈ 14.4 µM)	–	–	–	–	–	–
CCCc1cc(=O)oc2cc(OS(=O)(=O)c3ccc(C)cc3)cc(OS(=O)(=O)c3ccc(C)cc3)c12	> 3 µg/mL	> 50 µg/mL	–	3 µg/mL (≈ 5.68 µM)	1 µg/mL (≈ 1.89 µM)	–	–	> 20 µg/mL	2 µg/mL (≈ 3.78 µM)	1 µg/mL (≈ 1.89 µM)	2 µg/mL (≈ 3.78 µM)	1 µg/mL (≈ 1.89 µM)	> 5 µg/mL	3 µg/mL (≈ 5.68 µM)
CCCc1cc(=O)oc2cc(OCC(C)(C)C(=O)OC)c3c(c12)OC(C)(C)C=C3	2 µg/mL (≈ 4.99 µM)	0.08 µg/mL (≈ 0.2 µM)	> 4 µg/mL	40 µg/mL (≈ 99.9 µM)	30 µg/mL (≈ 74.9 µM)	> 100 µg/mL	25 µg/mL (≈ 62.4 µM)	> 20 µg/mL	–	–	–	–	–	–
CCCc1cc(=O)oc2c(C(=O)CC)c(O)c(C(=O)CC)c(O)c12	> 2 µg/mL	1.2 µg/mL (≈ 3.61 µM)	> 3 µg/mL	> 100 µg/mL	> 100 µg/mL	–	0.39 µg/mL (≈ 1.17 µM)	> 20 µg/mL	20 µg/mL (≈ 60.2 µM)	10 µg/mL (≈ 30.1 µM)	–	–	–	–
CCC/C(=C/C(=O)OC)c1c(O)c2c(c3c1OC(C)(C)[C@H](O)[C@H]3O)O[C@H](C)[C@@H](C)[C@@H]2O	> 2 µg/mL	> 50 µg/mL	> 4 µg/mL	10 µg/mL (≈ 22.9 µM)	20 µg/mL (≈ 45.8 µM)	–	–	> 20 µg/mL	100 µg/mL (≈ 229 µM)	> 100 µg/mL	20 µg/mL (≈ 45.8 µM)	5 µg/mL (≈ 11.5 µM)	–	–
CCCc1cc(=O)oc2c3c(c4c(c12)OC(C)(C)[C@H](O)[C@H]4O)O[C@H](C)[C@@H](C)[C@@H]3O	> 2.5 µg/mL	> 50 µg/mL	> 4 µg/mL	10 µg/mL (≈ 24.7 µM)	100 µg/mL (≈ 247 µM)	–	–	> 100 µg/mL	> 100 µg/mL	100 µg/mL (≈ 247 µM)	20 µg/mL (≈ 49.4 µM)	50 µg/mL (≈ 124 µM)	–	–
CCCc1cc(=O)oc2c3c(c4c(c12)OC(C)(C)C(O)C4O)O[C@H](C)[C@@H](C)[C@@H]3O (stereo partly drawn)	> 8 µg/mL	9.5 µg/mL (≈ 23.5 µM)	> 4 µg/mL	10 µg/mL (≈ 24.7 µM)	10 µg/mL (≈ 24.7 µM)	–	–	> 20 µg/mL	> 100 µg/mL	> 100 µg/mL	10 µg/mL (≈ 24.7 µM)	10 µg/mL (≈ 24.7 µM)	–	–
